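How tested: cells in 96-well plates exposed to compound for 48 hours at five concentrations. Definition used: TGI = concentration required for complete inhibition of growth.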 Peptide text beside a SMILES is read from it. * marks the point of attachment. X34 = O=C(c1ccc(-c2ccc(Cl)cc2Cl)o1)*
Columns and labels:
Test in all cases: NCI-60 cell line screen, 48 h
[1] = test system: BT-549 breast
[2] = test system: LOX IMVI melanoma
[3] = test system: SNB-75 CNS
[4] = test system: MDA-MB-435
[5] = test system: SK-MEL-28 melanoma
[6] = test system: TK-10 renal
[7] = test system: DU-145 prostate
[8] = test system: SF-268 CNS
[9] = test system: IGROV1 ovarian
[10] = test system: SF-539 CNS

Row | SMILES | TGI [1] | TGI [2] | TGI [3] | TGI [4] | TGI [5] | TGI [6] | TGI [7] | TGI [8] | TGI [9] | TGI [10]
1 | CCOc1ccccc1Nc1ccc(N)cc1S(=O)(=O)O | > 100 µM | > 100 µM | > 100 µM | > 100 µM | > 100 µM | > 100 µM | > 100 µM | > 100 µM | > 100 µM | 
2 | O=Cc1ccccc1CCn1c(=O)c2cc3c(=O)n(CCc4ccccc4C=O)c(=O)c3cc2c1=O |  | > 100 µM | > 100 µM |  | > 100 µM | > 100 µM |  | > 100 µM | > 100 µM | > 100 µM
3 | COC(=O)C(CC(C)C)NC(=O)C(Cc1ccccc1)NC(=O)C1CCCN1C(=O)C(CO)NC(=O)c1ccc(-c2ccc(Cl)cc2Cl)o1 (stereo unspecified) (X34-SPFL-OMe; configuration not given here) | 75.7 µM | 47.9 µM | 88.8 µM | 90.3 µM | > 100 µM | 67.5 µM | > 100 µM | > 100 µM |  | 60.4 µM
4 | CCOc1cc(C2SCC(=O)N2c2ccc3c(c2)Oc2c(Cl)c4c(c(Cl)c2=N3)Oc2cc(N3C(=O)CSC3c3ccc(O)c(OCC)c3)ccc2N=4)ccc1O (stereo unspecified) | > 100 µM | > 100 µM | 50.5 µM | > 100 µM | > 100 µM | > 100 µM | > 100 µM | > 100 µM | > 100 µM | 28.2 µM
5 | COc1ccc(C(=O)CCN(C)C)c2ccccc12 | 37.6 µM | 42.8 µM | 61.5 µM | 48.1 µM | 60.3 µM | > 54.4 µM | > 62 µM | 55.4 µM | 40.2 µM | 33.1 µM
6 | Cn1c2ccccc2c2c3c(c4c5ccccc5n(C5OC(CO)C(O)C(O)C5O)c4c21)C(=O)OC3=O (stereo unspecified) | > 100 µM | > 100 µM | > 100 µM | > 100 µM | > 100 µM | > 100 µM | > 100 µM | > 100 µM | > 100 µM | > 100 µM
7 | CC[C@@H]1CSC(/C=C/C2OC3OC(C)(C)OC3C3OC(C)(C)OC23)=N1 (stereo partly specified) | 13.4 µM | 20.6 µM | 29.6 µM | 20 µM | 34.7 µM | 14.6 µM | 5.19 µM | 18.8 µM | 26 µM | 30.4 µM
8 | COc1cc(NC(C)=O)ccc1C(=O)N/N=C/c1ccco1 | > 100 µM | > 100 µM | > 100 µM | > 100 µM | > 100 µM |  | > 100 µM | > 100 µM | > 100 µM | > 100 µM
9 | OCC(O)COCn1cc(Cn2ncc3c(NCc4ccccc4)ncnc32)nn1 (stereo unspecified) | > 100 µM | > 100 µM |  | > 100 µM | > 100 µM | > 100 µM | > 100 µM | 32.8 µM | > 100 µM | > 100 µM
10 | CC(C)CNCCc1ccccn1 | > 100 µM | > 100 µM | > 100 µM | > 100 µM | > 100 µM | > 100 µM | > 100 µM | > 100 µM | > 100 µM | 
11 | Nc1ncnc2c1ncn2[C@@H]1O[C@H](COP(=O)(O)OP(=O)(O)OC[C@H]2O[C@@H](OCCCO)[C@H](O)[C@@H]2O)[C@@H](O)[C@H]1O | > 100 µM | > 100 µM | > 100 µM | > 100 µM | > 100 µM | > 100 µM | > 100 µM | > 100 µM | > 100 µM | > 100 µM
12 | CC1(O)C2(c3ccccc3)CCC[N+]1(C)CC2 (stereo unspecified) | > 100 µM | > 100 µM | > 100 µM | > 100 µM | > 100 µM | > 100 µM | > 100 µM |  | > 100 µM | 
13 | CC(C)C1=CC2=CC[C@@H]3[C@](C)(CCC[C@@]3(C)C(=O)O)[C@H]2CC1 |  | > 100 µM | > 100 µM |  | > 100 µM | > 100 µM |  | > 100 µM | > 100 µM | > 100 µM
14 | COc1ccc(C(=O)c2nc3ccccc3nc2N2CCN(c3ccccc3)CC2)cc1OC |  | > 100 µM | > 100 µM | > 100 µM | > 100 µM | > 100 µM | > 100 µM | > 100 µM | > 100 µM | > 100 µM
15 | C1=CC=C2NCCc3cccc(c3)CCNC3=CC=CC=CC3=NCCCCCCN=C2C=C1 |  | 26.9 µM | 49.9 µM |  |  |  |  | > 100 µM | > 100 µM | 23.5 µM
16 | O=C1NC(=NCc2ccc(F)cc2)N/C1=C\c1ccccc1Cl | 56.8 µM | 28.6 µM | 26.6 µM | 43.9 µM | 67.3 µM | 67.4 µM | 46.8 µM | 59.9 µM | > 100 µM | > 100 µM
17 | CCCCC(=O)c1c(O)ccc2c(C)cc(=O)oc12 | > 100 µM | > 100 µM | > 100 µM | > 100 µM | > 100 µM | > 100 µM | > 100 µM | > 100 µM | > 100 µM | > 100 µM

Reference: PubChem BioAssay (NCI)
